In ChEMBL document CHEMBL6121057, “Discovery of an Orally Bioavailable STING Inhibitor with In Vivo Anti-Inflammatory Activity in Mice with STING-Mediated Inflammation” (J Med Chem, 2025):

Assays:
[1] = Metabolic stability in human liver microsomes assessed as half life; format: ADME, Microsome
[2] = Metabolic stability in human liver microsomes assessed as intrinsic clearance; format: ADME, Microsome; settings: read-out: CLH

## CCc1ccc(NC(=O)Nc2c[nH]c3ccc(F)cc23)cc1
[1]
  half-life: 16.9 min
[2]
  CLint scaled: 53 mL/min/kg

## CC(C)(C)c1ccc(NC(=O)Nc2c[nH]c3ccc(F)cc23)cc1
[1]
  half-life: 16.3 min
[2]
  CLint scaled: 76.3 mL/min/kg

## O=C(Nc1ccc(C(F)(F)F)cc1)Nc1c[nH]c2ccc(F)cc12
[1]
  half-life: 30.4 min
[2]
  CLint scaled: 41 mL/min/kg
